# Columns and labels:
# 4T1 tumor = 4T1 tumor growth in mice; assay type: in vivo; settings: for 4T1 tumor growth: echinomycin 0.15 mg/kg, vs vehicle
# Method: FIGS. 3A-D show the therapeutic effects of echinomycin on tumor growth in immunodeficient and immunocompetent mice. FIG. 3A. Experimental design. Three murine tumor lines were tested: 4T1, E0771, or MC38. For each, immunodeficient and immunocompetent mice were inoculated (day 0), and treatment was initiated with control liposomes (vehicle) or echinomycin liposomes (LEM) on day 6, indicated by arrows in FIGS. 3B-3D. The kinetics of tumor growth were compared to deduce the role of adaptive immunity in the therapeutic effects of echinomycin. FIG. 3B. 4T1 cells (1×10^6) were transplanted into mammary fat pad of NSG and BALB/c mice, which received vehicle or echinomycin (0.15 mg/kg) (arrows). Mean tumor volumes±SEM are shown for one of two independent experiments (n=10/group). FIG. 3C. Kinetics of E0771 tumor growth. E0771 cells (0.7×10^6) were transplanted into mammary fat pad of NSG and C57BL/6 mice, which received vehicle or echinomycin (0.25 mg/kg) (arrows). Mean tumor volumes±SEM are shown for one of two independent experiments (n=5/group). FIG. 3D. Kinetics of MC38 tumor growth. MC38 cells (1×10^6) were transplanted subcutaneously into NSG and C57BL/6 mice, which received vehicle or echinomycin (0.15 mg/kg) (blue arrows). Mean tumor volumes±SEM are shown for one of two independent experiments (n=5/group).
# FIGS. 5A-D show at echinomycin potentiates the therapeutic effect of anti-CTLA-4 antibody. FIG. 5A. Experimental design. In 4T1, E0771, or MC38 syngeneic tumor models, the effects of echinomycin on tumor growth were tested in combination with anti-CTLA-4 therapy (9D9). Tumor growth kinetics in mice receiving vehicle, echinomycin, and anti-CTLA-4 (9D9) monotherapies, or anti-CTLA-4+anti-PD-1 (9D9+RMP1-14) are shown. Starting on day 6 after tumor cell inoculation, mice received vehicle or echinomycin and/or various mAbs. The mean tumor volumes±SEM are shown for each group. […]
# Tumor Models The details of each experiment are specified in the figure legends. […] Tumor volumes were calculated and reported based on the formula […], where a is the longer diameter, and b is the shorter diameter. […]
# [1] = test system: E0771 tumor microenvironment; assay: Flow cytometry of dissociated E0771 tumors (tumor cells, myeloid cells, TILs); assay type: in vivo, C57BL/6 mice
# [2] = test system: PD-L1 in 4T1, E0771, MC38 tumors; assay: Intratumoral PD-L1 immunofluorescence in engrafted 4T1, E0771 and MC38 tumors; assay type: in vivo, mice; settings: LEM 0.25 mg/kg every other day for 5 doses; two days after final dose
# leukemia stem cells = settings: Wang et al., 2011; cited from earlier work
structure (smiles),measurement,setting,value
"CSC1SC[C@H]2C(=O)N(C)[C@@H](C(C)C)C(=O)OC[C@@H](NC(=O)c3cnc4ccccc4n3)C(=O)N[C@@H](C)C(=O)N(C)[C@@H]1C(=O)N(C)[C@@H](C(C)C)C(=O)OC[C@@H](NC(=O)c1cnc3ccccc3n1)C(=O)N[C@@H](C)C(=O)N2C (stereo in doubt) [echinomycin, N,N′-(2,4,12,15,17,25-hexamethyl-11,24-bis(1-methylethyl)-27-(methylthio)-3,6,10,13,16,19,23,26-octaoxo-9,22-dioxa-28-thia-2,5,12,15,18,25-hexaazabicyclo(12.12.3)nonacosane-7,20-diyl)bis(2-quinoxalinecarboxamide)]","4T1 growth inhibition, immunocompetent vs immunodeficient mice",4T1 tumor; BALB/c vs NSG,more significantly inhibited in immunocompetent mice than in immunodeficient mice
same,4T1 tumor growth,4T1 tumor; immunocompetent BALB/c,significantly inhibited 4T1 tumor growth
same,4T1 tumor growth,4T1 tumor; immunodeficient NSG,significantly inhibited 4T1 tumor growth
same,inhibition of PD-L1 on tumor cells in mice with conditional knockout of Hif1α in T cells,[1]; Hif1α conditional knockout in T lineages,preserved
same,CD3 TIL infiltration into hypoxic areas of the tumors,[1]; echinomycin-treated mice,increase in CD3 TIL infiltration into hypoxic areas
same,intratumoral PD-L1 expression (immunofluorescence),[2],marked reduction in PD-L1 expression
same,elimination of leukemia stem cells,leukemia stem cells,effectively eliminated leukemia stem cells
